Test results: US8691760B2, “Peptides, pharmaceutical compositions comprising same and uses thereof” (priority 2009, dated 2014)
Values joined by “and” are separate entries in the source; they are usually repeats but may differ in a detail not shown here. Identical values can stand only once. “Also recorded” adds a separate entry of the source. Like-named read-outs stand apart in the source and are kept apart here. Ends that are not written are not given here. Peptide text beside a SMILES is read from it.

Experiments:
rat recombinant IDE = target: T1, rat recombinant IDE (Rattus norvegicus, UniProt P35559); experiment: Fluorometric IDE activity assay (InnoZyme Insulysin/IDE Immunocapture Activity Assay Kit, FRET substrate); format: biochemical; conditions: 16 hours at 37° C.; for IC50: 3 repeated experiments
T1 construct: purchased Calbiochem (InnoZyme Insulysin/IDE Immunocapture Activity Assay Kit) CBA079
T1 sequence (P35559 whole entry): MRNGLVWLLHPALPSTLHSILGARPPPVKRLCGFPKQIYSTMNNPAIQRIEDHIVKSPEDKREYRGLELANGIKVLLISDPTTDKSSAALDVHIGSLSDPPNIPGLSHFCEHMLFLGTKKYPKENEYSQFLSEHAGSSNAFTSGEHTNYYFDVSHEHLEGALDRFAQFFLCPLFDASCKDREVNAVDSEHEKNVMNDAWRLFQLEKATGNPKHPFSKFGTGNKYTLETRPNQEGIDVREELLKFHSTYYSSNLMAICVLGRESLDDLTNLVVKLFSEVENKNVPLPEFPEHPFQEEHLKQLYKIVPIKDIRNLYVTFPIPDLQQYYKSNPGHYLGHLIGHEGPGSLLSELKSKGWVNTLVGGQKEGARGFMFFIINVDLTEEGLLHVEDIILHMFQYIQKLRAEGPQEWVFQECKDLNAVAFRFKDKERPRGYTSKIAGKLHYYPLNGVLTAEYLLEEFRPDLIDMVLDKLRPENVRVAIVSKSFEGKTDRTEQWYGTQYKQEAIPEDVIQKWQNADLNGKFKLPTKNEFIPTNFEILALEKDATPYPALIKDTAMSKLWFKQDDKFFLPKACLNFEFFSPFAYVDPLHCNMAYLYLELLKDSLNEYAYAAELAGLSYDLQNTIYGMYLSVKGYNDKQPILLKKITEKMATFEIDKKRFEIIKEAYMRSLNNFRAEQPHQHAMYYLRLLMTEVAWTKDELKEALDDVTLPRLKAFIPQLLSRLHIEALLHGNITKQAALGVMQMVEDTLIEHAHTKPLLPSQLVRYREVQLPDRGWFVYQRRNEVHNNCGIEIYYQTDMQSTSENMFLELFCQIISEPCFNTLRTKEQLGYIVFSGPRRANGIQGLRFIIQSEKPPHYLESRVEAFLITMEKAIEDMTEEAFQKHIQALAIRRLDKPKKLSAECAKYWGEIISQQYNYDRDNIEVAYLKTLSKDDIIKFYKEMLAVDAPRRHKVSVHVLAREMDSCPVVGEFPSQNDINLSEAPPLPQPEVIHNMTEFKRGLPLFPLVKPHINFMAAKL
Description: For example, one method that may be used (as described in detail in Example 2, of the Examples section which follows) comprises the use of Insulysin/IDE Immunocapture Activity Assay Kit (available e.g. from InnoZyme™, Calbiochem). Using this kit ELISA plates are first coated with the target enzyme (i.e. IDE) and then the plates are incubated with the synthesized peptide. The enzymatic activity is measured in comparison to wells without the peptide using for example a FRET substrate, Mca-[…]-EDDnp (SEQ ID NO: 11). Cleavage of the scissile amide bond between R and K releases the fluorophore from the quenching molecule, Dnp, resulting in an increase in fluorescence. The increase in fluorescence is measured using an excitation wavelength of 320 nm and an emission wavelength of 405 nm.
In order to measure IDE activity, coating of ELISA plates with the target enzyme (i.e. IDE) was carried out. Next, plates were incubated with the selected synthesized peptide candidate and the enzymatic activity was measured as compared to wells without the peptide candidate. This was carried out using InnoZyme™ Insulysin/IDE Immunocapture Activity Assay Kit from Calbiochem (worldwidewebdotmerckbiosciencesdotcom/Products/pdsdotaspquestionmarkcatnoequal CBA079), a specific and sensitive assay for measuring active IDE in cell lysates, tissue extracts and biological fluids.
Peptide ability to inhibit IDE activity was measured using InnoZyme™ Insulysin/IDE Immunocapture activity assay kit (Calbiochem), an affinity purified polyclonal antibody that recognized human, mouse, and rat insulysin, immobilized on a 96-well plate to capture the enzyme. In brief, rat recombinant IDE (1.14 nM) was incubated with increasing amounts of the candidate inhibitors with doses ranging from 1-100 μM for 16 hours at 37° C. and the activity of captured IDE was measured using a FRET substrate, Mca-[…]-EDDnp (SEQ ID NO: 11). Cleavage of the scissile amide bond between R and K released the fluorophore from the quenching molecule, Dnp, resulting in an increase in fluorescence. The increase in fluorescence was measured using an excitation wavelength of 320 nm and an emission wavelength of 405 nm. As a control, the kit used rat recombinant IDE. IC50 were evaluated following three repeated experiments.
Specifically, rat recombinant IDE (1.14 nM) was incubated with different doses of ADT-21 ([…]) for 16 hours at 37° C. and the activity of the captured insulysin (IDE) was measured using a FRET substrate, Mca-[…]-EDDnp (SEQ ID NO: 11) using Florolog with the following parameters Ex=320 nm, Gm=405 nm, Slit=2, Maximum trails=10, Integration time=1, Target standard deviation=1%.

NOD mice [1] = experiment: NOD mouse model of insulin dependent diabetes mellitus, nasal administration, blood glucose / diabetes onset; format: in vivo
From the text: (§1) A NOD mouse model has been used as previously described as a model for insulin dependent diabetes mellitus (IDDM) [Atkinson et al., (1990) Diabetes 39, 933-937]. Diabetes in NOD (NOD/ShiLtJ) mice is characterized by insulitis and marked decreases in pancreatic insulin content that occurred in females at about 15 weeks of age. The animals were monitored carefully when receiving the different treatments. Onset of diabetes was marked by moderate glycosuria and by non-fasting plasma glucose higher than 250 mg/dl.
(§2) 12 week old NOD mice were divided into two groups of 10-12 mice each, receiving, every other day, nasal administration of 10 μl of the respective peptide (3.76 μg/kg) or control PBS.
Mice were monitored for blood glucose levels weekly using glucose test strip (Elite, BAYER).

CD4+ T-cells = experiment: Co-culture of CD4+ T-cells of insulin-immunized NOD mice with spleen cells, IFN-γ and IL-17 ELISA; format: cell-based, mouse; conditions: co-culture with 10 μg/ml insulin, with or without 100 nM ADT21, 48 h
Description: (§3) Secretions of IFN-γ and IL-17 were measured in 48 hour cultured supernatants by ELISA. Briefly, 96 well plates were coated overnight with 1.5 μg/ml capture antibody (R&D Systems). Supernatants (as described above) were incubated overnight and detection biotinylated antibody (1 μg/ml, R&D Systems) was added for 1 hour. Plates were covered for 30 minutes with avidin-HRP conjugate and […] was used as a substrate for color development. 1M H2SO4 was used as a stop solution. Plates were measured using an ELISA plate reader at 405 nm.
NOD mice were immunized subcutaneously (s.c.) with bovine insulin (SIGMA) (n=6-7). 10 days later, CD4+ T-cells were isolated from the spleens of these mice using magnetic beads for negative selection (Miltenyi Biotec). The CD4+ T cells were co-cultured at a concentration of 1×10^6 cells/well in 96-well plates at a ratio of 1:1 with cells obtained from spleens of non immunized NOD mice (n=5). The co-culture was incubated with 10 μg/ml insulin with or without 100 nM ADT21. Supernatants were collect after 48 h of co-culture for cytokine measurements by ELISA for IL-17 and IFN-γ.

NOD mice [2] = experiment: Degree of insulitis, histological analysis of the pancreas of NOD mice; format: in vivo, mouse; conditions: NOD mice at 30 weeks, vs PBS-treated group
From the text: Randomly selected animals from each group (at 30 weeks) were sacrificed and the pancreas of each was examined in a double-blind fashion for insulitis using histological analysis of the pancreas as previously described [Frenkel et al. (2003) J Immunol 171, 6549-6555]. Six to ten islets per mouse were individually scored by two independent observers using a semi-quantitative scale ranging from 0-4 as follows: 0, normal islet with no sign of T cell infiltration; 1, islet associated with perivascular, periductal leukocytic infiltration only; 2, more extensive peri-islet infiltration, but with lymphocytes with less than 25% islet destruction; 3 more than 25% islet destruction; and 4, complete islet destruction.

[3] = system: splenocytes obtained from NOD mice; experiment: IFN-γ and IL-17 secretion from splenocytes of ADT21-treated NOD mice (ELISA); format: in vivo, mouse; conditions: splenocytes of treated NOD mice (30 weeks), incubated with insulin 48 hours
Description: Splenocytes were obtained from NOD mice at the age of 30 weeks. Splenocytes were obtained from both control and ADT21-treated mice. Splenocytes were cultured in T cell medium buffer and plated at 1×10^6 cells per well with and without bovine insulin (Sigma) for 48 hours as previously described [Frenkel et al. (2003) J Immunol 171, 6549-6555].
as §3

NOD mice [4] = experiment: IGF-1 blood level in NOD mice at 30 weeks (AssayMax mouse IGF1 kit); format: in vivo
From the text: NOD mice were monitored for the blood level of Insulin growth factor 1 (IGF-1) at 30 weeks using AssayMax mouse IGF1 kit.

NOD mice [5] = experiment: Blood insulin levels in NOD mice at 30 weeks (HTRF Insulin assay); format: in vivo, mouse; conditions: serum
From the text: as §1, §2
Mice were monitored for insulin blood levels at 30 week using HTRF® Insulin assay (Cisbio bioassays).

IDE [6] = target: IDE (Rattus norvegicus, UniProt P35559); experiment: In vitro insulin degradation assay (bovine insulin + IDE, insulin ELISA); format: biochemical; conditions: ADT21 0.2 nM; insulin 0.87 nM, IDE 1.14 nM, 16 hours at 37° C.
Chain of IDE (Rattus norvegicus, UniProt P35559) (P35559 whole entry): as above
Description: Insulin (0.87 nM) isolated from bovine pancreas (SIGMA) was incubated for 16 hours at 37° C. in the presence or absence of IDE (1.14 nM) together with the inhibitors (0.002-0.2 nM). The levels of insulin degradation were analyzed using mouse insulin ELISA kit (Mercodia).
In order to verify that ADT21 reduces degradation of insulin by IDE, inventors incubated bovine insulin for 16 hours at 37° C. with or without IDE (1.14 nM) along with ADT21. The levels of insulin degradation were analyzed using a mouse insulin ELISA kit (as described in the “materials and experimental procedures” section above). […] Therefore, inventors speculated that the use of this inhibitor in vivo would delay insulin degradation without preventing IDE activity.

IDE [7] = target: IDE (Homo sapiens, UniProt P14735); experiment: Blocking of VZV gE interaction with IDE; format: binding; conditions: data not shown
[8] = IC50, rat recombinant IDE 1.14 nM, FRET substrate Mca-GGFLRKHGQ-EDDnp

`N[C@@H](CC(=O)O)C(=O)N[C@@H](CC(=O)O)C(=O)O` [ADT-31, DD] (H-Asp-Asp-OH) gave an IC50 (rat recombinant IDE; rat recombinant IDE 1.14 nM, FRET substrate Mca-[…]-EDDnp, read-out: IC50) of 736 nM.
In the case of DAEFGSGGSSEALYDDLVCG [ADT82], the IC50 (rat recombinant IDE; [8]) is reported as 438 nM.
With DAEFGSGGSSKLVFDDFAED [ADT25] the IC50 (rat recombinant IDE; [8]) was 604 nM.
With EALYDDLVCG [ADT2] the IC50 (rat recombinant IDE; [8]) was 230 nM.
Compound EALYLVCG [INS, reference compound] has an IC50 (rat recombinant IDE; [8]) of 465 nM.
In the case of FVNQGSGGSSVLRYDDFHTD [ADT51], the IC50 (rat recombinant IDE; [8]) is reported as 494 nM.
HSQGGSGGSSEALYDDLVCG [ADT72] showed an IC50 (rat recombinant IDE; [8]) of 118 nM.
For HSQGGSGGSSFVQWDDLMN [ADT24], the IC50 (rat recombinant IDE; [8]) was 175 nM.
HSQGGSGGSSVLRYDDFHTD [ADT71] was tested, and the IC50 (rat recombinant IDE; [8]) was 1390 nM.
For ITNPGSGGSSEALYDDLVCG [ADT41], the IC50 (rat recombinant IDE; [8]) was 331 nM.
For ITNPGSGGSSKLVFDDFAED [ADT44], the IC50 (rat recombinant IDE; [8]) was 545 nM.
ITNPGSGGSSLANFDDLVHSSNN [ADT42] showed an IC50 (rat recombinant IDE; [8]) of 199 nM.
With ITNPGSGGSSVLRYDDFHTD [ADT21] the “age at first conversion to diabetes” value (NOD mice [1]; NOD mice treated from 12 weeks, every other day, 3.76 μg/kg (94 ng/day), untreated: 15 weeks) was 20 weeks, the “behavioral changes that might indicate toxicity (body weight, eating habits, tail tone, mobility)” value (NOD mice [1]; NOD mice, every other day) was “no behavioral changes” and the “animals remaining disease-free at 30 weeks” value (NOD mice [1]; NOD mice, every other day from 12 weeks, 71% of control mice diabetic) was 75%. The “disease progression (in words)” value (NOD mice [1]; NOD mice, every other day, vs PBS, P<0.05) was “significantly delayed”, the “release of IFN-γ” value (CD4+ T-cells; p<0.01) was “dose dependant reduction” and the “release of IL-17” value (CD4+ T-cells; p<0.05) was “dose dependant reduction”. For the same compound, the “infiltration of T cells in pancreatic islets (insulitis)” value (NOD mice [2]) was “significantly less infiltration of T cells”, the “reduction in the levels of IL-17” value [3] was 52% and the IC50 (rat recombinant IDE; [8]) was 100 nM and 10 to 200 nM. The “inhibition of IDE activity (in words)” value (rat recombinant IDE; rat recombinant IDE 1.14 nM) was “dose dependent and high efficacy in inhibition of IDE activity; also recorded: inhibits IDE activity in a dose dependant manner”, the “toxic effect related to IGF1 elevation” value (NOD mice [4]; IGF1 below the basal level (about 1000 ng/ml in wild type mice)) was “no toxic effect was observed” and the IGF1 blood level (NOD mice [4]; NOD mice at 30 weeks, control NOD mice 33 ng/ml) was 440 ng/mL. The “blood insulin level relative to reference NOD mice” value (NOD mice [5]; printed: compared to sick NOD mice) was 62%, the “increase in blood insulin” value (NOD mice [5]; vs control group) was “about 400%” and the “reduction of insulin degradation by IDE” value (IDE [6]) was 400%.
Work on “ITNPVRASVLRYDDFHTD [VZV, reference compound]” yielded an IC50 (rat recombinant IDE; [8]) of 450 nM.
KCNTGSGGSSLANFDDLVHSSNN [ADT23] was tested, and the IC50 (rat recombinant IDE; [8]) was 616 nM.
In the case of KCNTGSGGSSVLRYDDFHTD [ADT61], the IC50 (rat recombinant IDE; [8]) is reported as 824 nM.
Compound KLVFDDFAED [ADT5, KLVFDDFAED] has an IC50 (rat recombinant IDE; [8]) of 552 nM.
Compound LANFDDLVHSSNN [ADT3] has an IC50 (rat recombinant IDE; [8]) of 788 nM.
With VLRYDDFHTD [ADT1] the IC50 (rat recombinant IDE; [8]) was 145 nM.
VLRYNNFHTD [ADT5N] was tested, and the “inhibition of IDE activity (in words)” value (rat recombinant IDE; rat recombinant IDE 1.14 nM) was “prevented the inhibition of IDE”.
For “VZV gE (24-50): synthetic peptide corresponding to amino acids 24-50 of VZV gE (ITNPVRASVLRYDDFHTDEDKLDTNSV; A peptide sequence derived from VZV gE (24-50))”, the “blocking of VZV gE interaction with IDE” value (IDE [7]) was “blocked VZV gE interaction with IDE in a concentration dependent manner”.
